From patent publication US20250368633A1, “AZEPINE FUSED RING COMPOUND AS RIPK1 INHIBITOR AND USE THEREOF” (ARTIVILA BIOPHARMA, priority 2022, published 2025)

Key:
RIPK1 kinase = target: T1, RIPK1 kinase (Homo sapiens, UniProt Q13546); assay: In vitro RIPK1 kinase activity IC50 assay (ADP-Glo); type: biochemical; settings: ATP 10 μM; MBP substrate 100 μg/mL; 8 concentration points; read-out: IC50 range of compounds for RIPK1 kinase activity
T1 construct: purchased Promega VA7593
T1 sequence (Q13546 1-671): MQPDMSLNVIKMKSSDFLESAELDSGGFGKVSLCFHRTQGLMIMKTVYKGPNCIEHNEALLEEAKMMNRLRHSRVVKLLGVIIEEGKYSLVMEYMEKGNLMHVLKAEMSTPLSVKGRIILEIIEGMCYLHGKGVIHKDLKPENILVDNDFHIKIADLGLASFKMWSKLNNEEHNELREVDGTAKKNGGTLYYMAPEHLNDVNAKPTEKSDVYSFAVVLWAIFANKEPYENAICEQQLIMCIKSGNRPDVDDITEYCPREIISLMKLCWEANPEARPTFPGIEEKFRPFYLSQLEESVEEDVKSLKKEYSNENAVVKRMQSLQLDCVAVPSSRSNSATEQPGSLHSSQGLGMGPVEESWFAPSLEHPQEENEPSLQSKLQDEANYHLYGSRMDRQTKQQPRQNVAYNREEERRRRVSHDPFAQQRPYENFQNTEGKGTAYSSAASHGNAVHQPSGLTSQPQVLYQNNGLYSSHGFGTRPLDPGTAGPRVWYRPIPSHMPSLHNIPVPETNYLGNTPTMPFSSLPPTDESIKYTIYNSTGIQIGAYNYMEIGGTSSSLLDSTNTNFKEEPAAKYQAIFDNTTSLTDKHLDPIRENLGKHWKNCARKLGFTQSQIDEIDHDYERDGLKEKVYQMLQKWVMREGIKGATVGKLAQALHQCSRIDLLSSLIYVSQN
Summary of the method: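 Human RIPK1 preincubated 15 min at room temperature with compound (8-point 1:5 dilution series, 1% DMSO in kinase buffer D). Reaction then ran 1 h with 10 μM ATP and 100 μg/mL MBP substrate; ADP measured by ADP-Glo luminescence, IC50 from four-parameter nonlinear fit.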

U937 cells = assay: EC50 of necroptosis inhibition in U937 cells (TSZ-induced, CellTiter-Glo); type: cell-based; settings: Homo sapiens, U-937; TSZ (hTNF-α, SM-164, Z-VAD-FMK) 20 hours; 10 concentration points; read-out: EC50 intervals of necroptosis inhibition in U937 cells
Summary of the method: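 Luminescent ATP readout (CellTiter-Glo) after 20 h gave viability of TSZ-challenged U937 cells; compounds were added 15 min ahead of TNF-α/SM-164/Z-VAD-FMK. EC50 derived by variable-slope nonlinear regression of inhibition relative to no-TSZ and TSZ-alone controls.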

IC50 (RIPK1 kinase) | SMILES | EC50 (U937 cells)
< 100 nM | COCC#Cc1ccc2c(c1)N(C)C(=O)[C@@H](NC(=O)C(=O)NCCc1ccccc1)CO2 [Example 52, (S)—N^1-(7-(3-methoxyprop-1-yn-1-yl)-5-methyl-4-oxo-2,3,4,5-tetrahydrobenzo[b][1,4]oxazepin-3-yl)-N^2-phenethyloxalamide] | < 100 nM
< 100 nM | CN1C(=O)C(NC(=O)C(=O)NCCc2ccccc2)CCc2ccc(Br)cc21 (stereo not shown) [Example 61, N^1-(8-bromo-1-methyl-2-oxo-2,3,4,5-tetrahydro-1H-benzo[b]azepin-3-yl)-N^2-phenethyloxalamide] | < 100 nM
< 100 nM | CN1C(=O)C(NC(=O)C(=O)NCCc2ccccc2)CCc2ccc(C#CC3CC3)cc21 (stereo not shown) [Example 62, N^1-(8-(cyclopropylethynyl)-1-methyl-2-oxo-2,3,4,5-tetrahydro-1H-benzo[b]azepin-3-yl)-N^2-phenethyloxalamide] | < 100 nM
< 100 nM | CN1C(=O)C(NC(=O)C(=O)NCCc2ccccc2)CCc2ccc(C#CCCO)cc21 (stereo not shown) [Example 65, N^1-(8-(4-hydroxybut-1-yn-1-yl)-1-methyl-2-oxo-2,3,4,5-tetrahydro-1H-benzo[b]azepin-3-yl)-N^2-phenethyloxalamide] | < 100 nM
< 100 nM | CN1C(=O)C(NC(=O)C(=O)NCCc2ccccc2)CCc2ccc(C#CC3CCNCC3)cc21 (stereo not shown) [Example 66, N^1-(1-methyl-2-oxo-8-(piperidin-4-ylethynyl)-2,3,4,5-tetrahydro-1H-benzo[b]azepin-3-yl)-N^2-phenethyloxalamide] | < 100 nM
< 100 nM | CN1C(=O)[C@@H](NC(=O)C(=O)NCCc2ccccc2)COc2ccc(C#CC3CCN(CC#N)CC3)cc21 [Example 74, (S)—N^1-(7-((1-(cyanomethyl)piperidin-4-yl)ethynyl)-5-methyl-4-oxo-2,3,4,5-tetrahydrobenzo[b][1, 4]oxazepin-3-yl)-N^2-phenethyloxalamide] | < 100 nM
< 100 nM | CN1C(=O)[C@@H](NC(=O)C(=O)NCCc2ccccc2)COc2ccc(C#CC3COC3)cc21 [Example 76, (S)—N^1-(5-methyl-7-(oxetan-3-ylethynyl)-4-oxo-2,3,4,5-tetrahydrobenzo[b][1,4]oxazepin-3-yl)-N^2-phenethyloxalamide] | < 100 nM
< 100 nM | CN1C(=O)[C@H](NC(=O)C(=O)NCCc2ccccc2)COc2ccc(C#CC3(O)COC3)cc21 [Example 77, (R)—N^1-(7-((3-hydroxyoxetan-3-yl)ethynyl)-5-methyl-4-oxo-2,3,4,5-tetrahydrobenzo[b][1,4]oxazepin-3-yl)-N^2-phenethyloxalamide] | < 100 nM
< 100 nM | COC1(C#Cc2ccc3c(c2)N(C)C(=O)[C@@H](NC(=O)C(=O)NCCc2ccccc2)CO3)COC1 [Example 78, (S)—N^1-(7-((3-methoxyoxetan-3-yl)ethynyl)-5-methyl-4-oxo-2,3,4,5-tetrahydrobenzo[b][1,4]oxazepin-3-yl)-N^2-phenethyloxalamide] | < 100 nM
< 100 nM | CN1C(=O)[C@@H](NC(=O)C(=O)NCCc2ccccc2)COc2ccc(C#CCC3(O)COC3)cc21 [Example 79, (S)—N^1-(7-(3-(3-hydroxyoxetan-3-yl)prop-1-yn-1-yl)-5-methyl-4-oxo-2,3,4,5-tetrahydrobenzo[b][1,4]oxazepin-3-yl)-N^2-phenethyloxalamide] | < 100 nM
< 100 nM | CN1C(=O)[C@@H](NC(=O)C(=O)NCCc2ccccc2)COc2ccc(C#CC3(O)CCOC3)cc21 (stereo partly drawn) [Example 80, N^1-((3S)-7-((3-hydroxytetrahydrofuran-3-yl)ethynyl)-5-methyl-4-oxo-2,3,4,5-tetrahydrobenzo[b][1,4]oxazepin-3-yl)-N^2-phenethyloxalamide] | < 100 nM
< 100 nM | CN1C(=O)[C@@H](NC(=O)C(=O)NCCc2ccccc2)COc2ccc(C#CCN3CCC(O)CC3)cc21 [Example 81, (S)—N^1-(7-(3-(4-hydroxypiperidin-1-yl)prop-1-yn-1-yl)-5-methyl-4-oxo-2,3,4,5-tetrahydrobenzo[b][1,4]oxazepin-3-yl)-N^2-phenethyloxalamide] | < 100 nM
< 100 nM | CN1C(=O)[C@@H](NC(=O)C(=O)NCCc2ccccc2)COc2ccc(C#CCN3C(=O)CCC3=O)cc21 [Example 84, (S)—N^1-(7-(3-(2,5-dioxopyrrolidin-1-yl)prop-1-yn-1-yl)-5-methyl-4-oxo-2,3,4,5-tetrahydrobenzo[b][1,4]oxazepin-3-yl)-N^2-phenethyloxalamide] | < 100 nM
< 100 nM | CN1C(=O)[C@@H](NC(=O)C(=O)NCCc2ccccc2)COc2ccc(C#CCN3CCNC(=O)C3)cc21 [Example 85, (S)—N^1-(5-methyl-4-oxo-7-(3-(3-oxopiperazin-1-yl)prop-1-yn-1-yl)-2,3,4,5-tetrahydrobenzo[b][1, 4]oxazepin-3-yl)-N^2-phenethyloxalamide] | < 100 nM
< 100 nM | CN1C(=O)[C@@H](NC(=O)C(=O)NCCc2ccccc2)COc2ccc(C#CCNC(=O)OC(C)(C)C)cc21 [Example 86, tert-butyl (S)-(3-(5-methyl-4-oxo-3-(2-oxo-2-(phenethylamino)acetamido)-2,3,4,5-tetrahydrobenzo[b][1,4]oxazepin-7-yl)prop-2-yn-1-yl)carbamate] | < 100 nM
< 100 nM | CN1C(=O)[C@@H](NC(=O)C(=O)NCCc2ccccc2)COc2ccc(C#CCNC(=O)CO)cc21 [Example 88, (S)—N^1-(7-(3-(2-hydroxyacetamido)prop-1-yn-1-yl)-5-methyl-4-oxo-2,3,4,5-tetrahydrobenzo[b][1, 4]oxazepin-3-yl)-N^2-phenethyloxalamide] | < 100 nM
< 100 nM | C=CC(=O)NCC#Cc1ccc2c(c1)N(C)C(=O)[C@@H](NC(=O)C(=O)NCCc1ccccc1)CO2 [Example 89, (S)—N^1-(7-(3-acrylamidoprop-1-yn-1-yl)-5-methyl-4-oxo-2,3,4,5-tetrahydrobenzo[b][1,4]oxazepin-3-yl)-N^2-phenethyloxalamide] | < 100 nM
< 100 nM | CN1C(=O)[C@@H](NC(=O)C(=O)NCCc2ccccc2)COc2ccc(C#CC3CN(C=O)C3)cc21 [Example 91, (S)—N^1-(7-((1-formylazetidin-3-yl)ethynyl)-5-methyl-4-oxo-2,3,4,5-tetrahydrobenzo[b][1,4]oxazepin-3-yl)-N^2-phenethyloxalamide] | < 100 nM
< 100 nM | CN1C(=O)[C@@H](NC(=O)C(=O)NCCc2ccccc2)COc2ccc(C#CC3(O)CN(C=O)C3)cc21 [Example 92, (S)—N^1-(7-((1-formyl-3-hydroxyazetidin-3-yl)ethynyl)-5-methyl-4-oxo-2,3,4,5-tetrahydrobenzo[b][1,4]oxazepin-3-yl)-N^2-phenethyloxalamide] | < 100 nM
< 100 nM | CCOC(=O)CCC#Cc1ccc2c(c1)N(C)C(=O)[C@@H](NC(=O)C(=O)NCCc1ccccc1)CO2 [Example 94, ethyl (S)-5-(5-methyl-4-oxo-3-(2-oxo-2-(phenethylamino)acetamido)-2,3,4,5-tetrahydrobenzo[b][1,4]oxazepin-7-yl) pent-4-ynoate] | 100 to 500 nM
